Data on 6 compounds can be found in ChEMBL document CHEMBL5506047, “Impact of Combinatorial Histone Modifications on Acetyllysine Recognition by the ATAD2 and ATAD2B Bromodomains” (J Med Chem, 2024).

Assay [1] concerns the target T1, ATPase family AAA domain-containing protein 2 (Homo sapiens, UniProt Q6PL18).
T1 sequence (Q6PL18 whole entry): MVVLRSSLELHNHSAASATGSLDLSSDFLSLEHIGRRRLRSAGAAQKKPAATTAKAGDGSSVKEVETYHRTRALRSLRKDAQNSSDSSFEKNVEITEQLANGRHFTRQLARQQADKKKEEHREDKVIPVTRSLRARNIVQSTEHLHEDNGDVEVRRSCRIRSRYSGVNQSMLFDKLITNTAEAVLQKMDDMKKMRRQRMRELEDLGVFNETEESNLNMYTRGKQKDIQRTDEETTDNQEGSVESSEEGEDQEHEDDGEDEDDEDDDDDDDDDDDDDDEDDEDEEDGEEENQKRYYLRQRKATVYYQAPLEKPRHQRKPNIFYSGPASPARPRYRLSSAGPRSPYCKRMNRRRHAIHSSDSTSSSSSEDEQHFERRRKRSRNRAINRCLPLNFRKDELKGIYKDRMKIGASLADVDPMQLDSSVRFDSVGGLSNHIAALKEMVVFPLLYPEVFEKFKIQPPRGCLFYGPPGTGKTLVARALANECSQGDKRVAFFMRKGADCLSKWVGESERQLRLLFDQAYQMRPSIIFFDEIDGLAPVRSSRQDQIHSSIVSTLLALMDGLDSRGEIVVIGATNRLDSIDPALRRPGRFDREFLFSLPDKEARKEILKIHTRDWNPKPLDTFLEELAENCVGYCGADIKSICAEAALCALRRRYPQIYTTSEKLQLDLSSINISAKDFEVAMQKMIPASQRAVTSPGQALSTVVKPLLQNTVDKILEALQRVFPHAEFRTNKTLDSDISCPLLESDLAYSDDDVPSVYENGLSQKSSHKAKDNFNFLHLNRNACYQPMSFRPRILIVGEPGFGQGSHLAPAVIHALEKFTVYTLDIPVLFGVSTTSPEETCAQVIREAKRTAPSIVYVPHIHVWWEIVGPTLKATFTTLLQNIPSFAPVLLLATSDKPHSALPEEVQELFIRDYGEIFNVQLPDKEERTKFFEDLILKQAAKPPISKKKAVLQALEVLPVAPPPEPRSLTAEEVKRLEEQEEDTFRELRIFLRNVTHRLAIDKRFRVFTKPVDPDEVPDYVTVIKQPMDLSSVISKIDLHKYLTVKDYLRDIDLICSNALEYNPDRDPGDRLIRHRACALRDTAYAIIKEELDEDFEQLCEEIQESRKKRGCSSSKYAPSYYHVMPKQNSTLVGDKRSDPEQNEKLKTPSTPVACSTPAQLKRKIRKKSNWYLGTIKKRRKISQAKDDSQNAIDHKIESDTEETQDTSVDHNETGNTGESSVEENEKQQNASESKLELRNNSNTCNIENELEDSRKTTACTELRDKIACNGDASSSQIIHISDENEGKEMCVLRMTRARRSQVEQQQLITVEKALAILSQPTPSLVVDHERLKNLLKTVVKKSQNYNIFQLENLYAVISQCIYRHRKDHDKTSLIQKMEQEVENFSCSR
Kind of assay: Binding affinity to human ATAD2 BRD assessed as dissociation constant by isothermal titration calorimetry.

Assay [2] has as its target T2, ATPase family AAA domain-containing protein 2B (Homo sapiens, UniProt Q9ULI0).
T2 sequence (Q9ULI0 whole entry): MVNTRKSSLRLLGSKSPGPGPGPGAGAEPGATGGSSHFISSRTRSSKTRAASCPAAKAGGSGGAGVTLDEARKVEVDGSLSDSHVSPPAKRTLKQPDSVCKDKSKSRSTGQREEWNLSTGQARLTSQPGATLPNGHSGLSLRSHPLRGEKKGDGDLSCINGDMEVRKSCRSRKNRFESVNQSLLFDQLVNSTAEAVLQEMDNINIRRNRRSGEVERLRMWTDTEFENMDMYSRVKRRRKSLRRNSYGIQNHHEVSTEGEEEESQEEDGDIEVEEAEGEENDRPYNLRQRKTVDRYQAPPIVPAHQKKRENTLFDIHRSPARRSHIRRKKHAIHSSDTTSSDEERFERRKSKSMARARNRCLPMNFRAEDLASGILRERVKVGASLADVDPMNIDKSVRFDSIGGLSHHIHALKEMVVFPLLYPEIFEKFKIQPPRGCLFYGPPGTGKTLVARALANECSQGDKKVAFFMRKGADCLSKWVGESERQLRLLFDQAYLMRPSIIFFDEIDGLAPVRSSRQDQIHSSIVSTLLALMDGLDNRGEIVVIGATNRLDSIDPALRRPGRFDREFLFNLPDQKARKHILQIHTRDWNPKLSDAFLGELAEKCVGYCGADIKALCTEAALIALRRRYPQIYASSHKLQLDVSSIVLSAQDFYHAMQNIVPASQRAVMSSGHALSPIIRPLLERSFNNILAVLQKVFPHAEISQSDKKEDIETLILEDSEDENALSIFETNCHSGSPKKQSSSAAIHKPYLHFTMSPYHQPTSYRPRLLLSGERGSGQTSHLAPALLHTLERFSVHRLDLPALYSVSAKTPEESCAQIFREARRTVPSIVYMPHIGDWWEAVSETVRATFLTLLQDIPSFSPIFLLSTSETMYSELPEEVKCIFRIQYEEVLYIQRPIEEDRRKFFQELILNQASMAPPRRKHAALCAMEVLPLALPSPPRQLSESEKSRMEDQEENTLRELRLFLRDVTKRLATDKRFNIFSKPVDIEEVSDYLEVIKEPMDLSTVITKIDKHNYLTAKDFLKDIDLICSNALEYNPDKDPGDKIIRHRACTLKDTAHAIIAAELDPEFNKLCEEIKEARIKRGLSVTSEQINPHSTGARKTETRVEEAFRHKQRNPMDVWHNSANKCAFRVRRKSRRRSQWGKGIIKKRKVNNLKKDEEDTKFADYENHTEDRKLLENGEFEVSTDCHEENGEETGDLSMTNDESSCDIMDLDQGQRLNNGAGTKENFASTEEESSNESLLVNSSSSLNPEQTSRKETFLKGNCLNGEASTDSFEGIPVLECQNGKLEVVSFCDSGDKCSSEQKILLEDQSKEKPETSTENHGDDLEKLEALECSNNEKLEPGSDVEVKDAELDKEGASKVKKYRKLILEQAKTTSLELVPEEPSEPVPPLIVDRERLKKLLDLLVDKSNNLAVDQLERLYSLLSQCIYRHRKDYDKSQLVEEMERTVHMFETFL
Nature of the assay: Binding affinity to human ATAD2B BRD assessed as dissociation constant by isothermal titration calorimetry.

In the case of `CC(=O)NCCCC[C@H](NC(=O)[C@H](CO)NC(=O)[C@H](CCCNC(=N)N)NC(=O)CNC(=O)[C@@H](N)CO)C(=O)NCC(=O)NCC(=O)N[C@@H](CCCCN)C(=O)NCC(=O)N[C@@H](CC(C)C)C(=O)NCC(=O)N[C@@H](CCCCN)C(=O)NCC(=O)NCC(=O)N[C@@H](C)C(=O)O`, the Kd result in assay [1] and in assay [2] was “Not Active” throughout.

As for `CC(=O)NCCCC[C@H](NC(=O)[C@H](CC(=O)O)NC(=O)[C@H](CCCNC(=N)N)NC(=O)CNC(=O)[C@@H](N)CO)C(=O)NCC(=O)NCC(=O)N[C@@H](CCCCN)C(=O)NCC(=O)N[C@@H](CC(C)C)C(=O)NCC(=O)N[C@@H](CCCCN)C(=O)NCC(=O)NCC(=O)N[C@@H](C)C(=O)O`, the Kd entry in assay [1] and in assay [2] was “Not Active” each time.

Consider H-AGGK(Ac)AGK(Ac)DSGKAKTK-OH, for which the Kd entry in assay [1] and in assay [2] was “Not Active” in each case.

Consider H-AGGK(Ac)AGKDSGKAKTK-OH, for which the Kd entry in assay [1] is recorded as “Not Active”.

As for H-AGGKAGKDSGKAKTK-OH, the Kd entry in assay [1] and in assay [2] was “Not Active” each time.

Take H-SGRGKTGGKARAKAKSR-OH: the Kd result in assay [1] and in assay [2] was “Not Active” in each case.
